In article PMC2811193, “Complementary Roles in Cancer Prevention: Protease Inhibitor Makes the Cancer Preventive Peptide Lunasin Bioavailable” (PLoS ONE, 2010):

Legend:
[1] = system: Pancreatin from porcine pancreas; assay: In vitro digestion of lunasin with pancreatin, with or without protease inhibitors; format: in vitro ADME; settings: pre-incubation with inhibitor 30 min at 25°C, pancreatin 1 h at 37°C, Western-Blot band intensity
Description: (§1) Figure 2 Soy-derived BBI and KTI protect synthetic lunasin from in vitro digestion. The upper, lighter bands are Coomassie Blue protein stains and the lower, darker bands are Western blots. (M) Markers, (1) Lunasin (600 ng) + pancreatin (600 ng) incubated for 0 h at 37°C, (2) Lunasin (600 ng) + pancreatin (600 ng) incubated for 1 h at 37°C, (3) Lunasin (600 ng) + BBI (18,000 ng, unboiled) + pancreatin (600 ng) incubated for 1 h at 37°C, (4). Lunasin (600 ng) + KTI (18,000 ng, unboiled) + pancreatin (600 ng) incubated for 1 h at 37°C, (5) Lunasin (600 ng) + BBI (18,000 ng, boiled) + pancreatin (600 ng) incubated for 1 h at 37°C, (6) Lunasin (600 ng)+KTI (18,000 ng, boiled) + pancreatin (600 ng) incubated for 1 h at 37°C, (7) BBI (unboiled), (8) KTI (unboiled).
(§2) In vitro digestion of lunasin was carried out following the method published in the United States Pharmacopeia. Synthetic lunasin (American Peptide Company, Inc. Sunnyvale, CA, USA) (5 µg) was incubated with the protease inhibitors BBI or KTI (Sigma, St. Louis, MO, USA) for 30 min at 25°C. Pancreatin from porcine pancreas (Sigma) was added (enzyme∶protein ratio of 1∶10) and solution was incubated at 37°C for 1 h. Tris-tricine sample buffer was added at the end of the reaction and immediately stopped by placing the tubes in a boiling water bath for 5 min. The digests were analyzed by SDS-PAGE and Western-Blot following the protocol previously described.

pancreatin = assay: as above; format: in vitro ADME, porcine; settings: pig, pancreatin from porcine pancreas; in the presence of boiled KTI; pre-incubation with inhibitor 30 min at 25°C; pancreatin 1 h at 37°C; Western-Blot band intensity; read-out: lunasin remaining intact after digestion with pancreatin
Description: as §1, §2

[2] = Bioavailability of 3H-lunasin after oral gavage with LES in CD-1 mice; format: in vivo
Description: Bioavailability studies in mice were done at North View Pacific Laboratories (Hercules, CA, USA), according with the Animal Care and Use Committee (ACUC) human guidelines. CD-1 mice (3-5 weeks old) were purchased from Jackson Laboratories (Bar Harbor, ME, USA) and conditioned on AIN76A diet for one week. Forty mice (20 male and 20 female) were fasted for 8 hrs before oral administration by gavage. Mice were separated into two groups, a control group receiving 240 mg of LES formulation and a treatment group receiving 240 mg of LES formulation plus 8 µCi of ^3H-lunasin (SibTech, Inc. Brookfield, CT, USA) in 0.1 mL of 10% sucrose solution. Four mice of each group were sacrificed at 3, 6, 9, 12 and 24 hrs after oral administration. The tissue samples were collected and prepared for scintillation counting by solubilizing in TS-2 tissue solubilizer (Research Products International Corp., Chicago, IL, USA) and addition of 15% benzoyl peroxide. Each sample was read in 5 ml of HionicFluor cocktail mix using a 1600TR liquid scintillation counter (Packard Inst. Meriden CT, USA).
Supplementary file pone.0008890.s001.tif: Figure S1 Recovery of ^3H-lunasin dose (expressed in percentage) in (-▴-) total, (-•-) tissues, and (-o-) gastrointestinal contents of mice at 3, 6, 9, 12, and 24 hours post-gavage of lunasin-enriched soy (LES). […]

[3] = Lunasin in blood and liver of rats fed LES diet for 4 weeks; format: in vivo; settings: female, Sprague-Dawley, rat, po, 0.25 % of the diet, rats fed dietary LES for 4 weeks
From the text: Sprague-Dawley Rats (Female, 5-weeks old) were purchased from Central Laboratory Animal Inc. (Korea), and experiments were done according with guidelines of the Animal Center at Andong National University (Andong, Korea). Five rats were fed ad libitum with LES and potato starch (0.25% of the diet) for 4 weeks, and then sacrificed. Livers and serum were collected and freeze-dried immediately. One gram of the freeze-dried tissues was extracted with 0.1 M PBS (pH 7.0) (buffer∶tissue ratio (v/w) = 1∶3) at 4°C for 24 hrs, and then centrifuged at 15000 rpm for 1 h. The supernatant protein was further purified by ion exchange chromatography on Biogel resin AG 1-X4 (BioRad), as described by Jeong et al.. Lunasin was further purified by injecting 20 µl of filtrate into the HPLC system equipped with a C18 column (Proteo 90A, Phenomenex Co., Torrance, CA, USA) equilibrated at ambient temperature and an UV detector (295 nm) stabilized with the mobile phase (acetonitrile∶water = 4∶6), at a flow rate of 2.5 ml/min for 15 min. Lunasin was identified by comparison with the retention time of standard synthetic lunasin peak. The lunasin fraction was collected, freeze dried and analyzed by SDS-PAGE and Western-Blot as described above.
Supplementary file pone.0008890.s002.tif: Figure S2 Lunasin was extracted from blood and liver of rats fed control and lunasin-enriched soy (LES) diets for four weeks. […]

skin papilloma = settings: applied topically at 250 mg/week; SENCAR mice; cited from earlier work
From the text: […] […] This is consistent with another observation that lunasin slows down epidermal cell proliferation in mouse skin in the absence and presence of DMBA using a ^2H2O label ...

lunasin remaining intact after digestion with pancreatin ([1]; in the presence of boiled BBI): 98%
lunasin remaining intact after digestion with pancreatin ([1]; in the presence of unboiled BBI): Approximately 93%
lunasin remaining intact after digestion with pancreatin ([1]; in the presence of unboiled KTI): ~97%
remaining at 1 h (pancreatin): 84%
total oral dose of lunasin absorbed ([2]; 3 hrs post-gavage, 3H-labelled synthetic lunasin (8 µCi) mixed with 240 mg LES, CD-1 mice fasted 8 hrs, scintillation counting of tissues): approximately 30%
crossing of the blood-brain barrier ([2]; oral gavage of 3H-lunasin with LES, CD-1 mice, 3H radioactivity in brain): able to cross the blood-brain barrier
level at 672 h ([3]; blood, present as a monomer, Western-blot after anion exchange-HPLC purification, read-out: lunasin concentration in blood): 17.5 ng/mL
tissue level at time at 672 h ([3]; liver, exists as a dimer, Western-blot, read-out: lunasin concentration in liver): 3100 ng/g
Compound: CC[C@H](C)[C@H](NC(=O)[C@H](CCCCN)NC(=O)[C@H](CCC(=O)O)NC(=O)[C@H](CCSC)NC(=O)[C@@H](NC(=O)[C@H](Cc1c[nH]cn1)NC(=O)[C@H](CCCCN)NC(=O)[C@H](CCC(=O)O)NC(=O)[C@H](CS)NC(=O)[C@@H]1CCCN1C(=O)[C@@H](NC(=O)[C@H](CC(C)C)NC(=O)[C@H](CC(N)=O)NC(=O)[C@@H](NC(=O)CNC(=O)[C@H](CCC(N)=O)NC(=O)[C@H](CC(C)C)NC(=O)[C@H](CCC(N)=O)NC(=O)[C@H](CCCCN)NC(=O)[C@H](CCCNC(=N)N)NC(=O)[C@H](CS)NC(=O)[C@H](CO)NC(=O)[C@H](CC(=O)O)NC(=O)[C@H](CCC(N)=O)NC(=O)[C@H](CCC(N)=O)NC(=O)[C@H](Cc1c[nH]cn1)NC(=O)[C@H](CCC(N)=O)NC(=O)[C@H](Cc1c[nH]c2ccccc12)NC(=O)[C@H](CCCCN)NC(=O)[C@@H](N)CO)C(C)C)[C@@H](C)O)[C@@H](C)CC)C(=O)N[C@@H](CCC(N)=O)C(=O)NCC(=O)N[C@@H](CCCNC(=N)N)C(=O)NCC(=O)N[C@@H](CC(=O)O)C(=O)N[C@@H](CC(=O)O)C(=O)N[C@@H](CC(=O)O)C(=O)N[C@@H](CC(=O)O)C(=O)N[C@@H](CC(=O)O)C(=O)N[C@@H](CC(=O)O)C(=O)N[C@@H](CC(=O)O)C(=O)N[C@@H](CC(=O)O)C(=O)N[C@@H](CC(=O)O)C(=O)O [lunasin]
suppression of skin papilloma formation compared with the control (skin papilloma): 70%
